Measured values published in ChEMBL document CHEMBL1201862, “PubChem BioAssay data set” (2004).
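Interpolation was linear, between the two tested concentrations surrounding the appropriate level; five concentrations were tested over 48 hours in 96-well plates. GI50 is the concentration that inhibits growth by half.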 Active and inactive are the calls of the source. Rule as the data show it: active = GI50 up to about 1.1 µM and inactive = higher.

Experiments:
Test in all cases: growth of human tumour cells (NCI), 48 h
786-0 = tested on: 786-0
A498 = tested on: A498
A549 = tested on: A549
ACHN = tested on: ACHN
BT-549 = tested on: BT-549
CAKI-1 = tested on: CAKI-1
CCRF-CEM = tested on: CCRF-CEM
COLO 205 = tested on: COLO 205
DU-145 = tested on: DU-145
EKVX = tested on: EKVX
HCC 2998 = tested on: HCC 2998
HCT-116 = tested on: HCT-116
HCT-15 = tested on: HCT-15
HL-60 = tested on: HL-60
HOP-62 = tested on: HOP-62
HOP-92 = tested on: HOP-92
HT-29 = tested on: HT-29
Hs-578T = tested on: Hs-578T
IGROV-1 = tested on: IGROV-1
K562 = tested on: K562
KM12 = tested on: KM12
LOX IMVI = tested on: LOX IMVI
M14 = tested on: M14
MCF7 = tested on: MCF7
MDA-MB-231 = tested on: MDA-MB-231
MDA-MB-435 = tested on: MDA-MB-435
MDA-N = tested on: MDA-N
MOLT-4 = tested on: MOLT-4
Malme-3M = tested on: Malme-3M
NCI-H226 = tested on: NCI-H226
NCI-H23 = tested on: NCI-H23
NCI-H460 = tested on: NCI-H460
NCI-H522 = tested on: NCI-H522
NCI/ADR-RES = tested on: NCI/ADR-RES
OVCAR-4 = tested on: OVCAR-4
OVCAR-5 = tested on: OVCAR-5
OVCAR-8 = tested on: OVCAR-8
PC-3 = tested on: PC-3
RPMI-8226 = tested on: RPMI-8226
RXF 393 = tested on: RXF 393
SF-268 = tested on: SF-268
SF-295 = tested on: SF-295
SF-539 = tested on: SF-539
SK-MEL-28 = tested on: SK-MEL-28
SK-MEL-2 = tested on: SK-MEL-2
SK-MEL-5 = tested on: SK-MEL-5
SK-OV-3 = tested on: SK-OV-3
SN12C = tested on: SN12C
SNB-19 = tested on: SNB-19
SNB-75 = tested on: SNB-75
SR = tested on: SR
SW-620 = tested on: SW-620
T47D = tested on: T47D
TK-10 = tested on: TK-10
U-251 = tested on: U-251
UACC-257 = tested on: UACC-257
UACC-62 = tested on: UACC-62
UO-31 = tested on: UO-31
OVCAR-3 = tested on: OVCAR-3

## COC(=O)C(CCSC)NC(=O)CSc1nnc(COc2ccc(Cl)cc2)n1-c1ccccc1 (configuration not stated)
786-0
  GI50: 16.3 µM (inactive)
A498
  GI50: 21.3 µM (inactive)
A549
  GI50: 26.8 µM (inactive)
ACHN
  GI50: 18.1 µM (inactive)
BT-549
  GI50: 19.6 µM (inactive)
CAKI-1
  GI50: 16.7 µM (inactive)
CCRF-CEM
  GI50: 23.7 µM (inactive)
COLO 205
  GI50: 18.3 µM (inactive)
DU-145
  GI50: 18.2 µM (inactive)
EKVX
  GI50: 27.6 µM (inactive)
HCC 2998
  GI50: 7.52 µM (inactive)
HCT-116
  GI50: 16.6 µM (inactive)
HCT-15
  GI50: 18.6 µM
HL-60
  GI50: 18.3 µM (inactive)
HOP-62
  GI50: 3.08 µM (inactive)
HOP-92
  GI50: 18.2 µM (inactive)
HT-29
  GI50: 18.3 µM (inactive)
Hs-578T
  GI50: 21.4 µM (inactive)
IGROV-1
  GI50: 16 µM (inactive)
K562
  GI50: 24.5 µM (inactive)
KM12
  GI50: 18.2 µM (inactive)
LOX IMVI
  GI50: 13.8 µM (inactive)
M14
  GI50: 18.7 µM (inactive)
MCF7
  GI50: 21.1 µM (inactive)
MDA-MB-231
  GI50: 17 µM (inactive)
MDA-MB-435
  GI50: 18.4 µM (inactive)
MDA-N
  GI50: 18.9 µM (inactive)
MOLT-4
  GI50: 13.9 µM (inactive)
Malme-3M
  GI50: 21.3 µM (inactive)
NCI-H226
  GI50: 21.4 µM (inactive)
NCI-H23
  GI50: 17.8 µM (inactive)
NCI-H460
  GI50: 14.4 µM (inactive)
NCI-H522
  GI50: 3.77 µM (inactive)
NCI/ADR-RES
  GI50: 17.6 µM (inactive)
OVCAR-4
  GI50: 16.1 µM (inactive)
OVCAR-5
  GI50: 19.5 µM (inactive)
OVCAR-8
  GI50: 18.6 µM (inactive)
PC-3
  GI50: 18.9 µM (inactive)
RPMI-8226
  GI50: 0.883 µM (active)
RXF 393
  GI50: 19.1 µM (inactive)
SF-268
  GI50: 17.1 µM (inactive)
SF-295
  GI50: 17 µM (inactive)
SF-539
  GI50: 18.4 µM (inactive)
SK-MEL-28
  GI50: 17.4 µM (inactive)
SK-MEL-2
  GI50: 16 µM (inactive)
SK-MEL-5
  GI50: 18.5 µM (inactive)
SK-OV-3
  GI50: 14.5 µM (inactive)
SN12C
  GI50: 17.8 µM (inactive)
SNB-19
  GI50: 23.5 µM (inactive)
SNB-75
  GI50: 16.7 µM (inactive)
SR
  GI50: 8.53 µM (inactive)
SW-620
  GI50: 21.7 µM (inactive)
T47D
  GI50: 27.5 µM (inactive)
TK-10
  GI50: 19.1 µM (inactive)
U-251
  GI50: 17.1 µM (inactive)
UACC-257
  GI50: 16.9 µM (inactive)
UACC-62
  GI50: 18.2 µM (inactive)
UO-31
  GI50: 3.94 µM (inactive)

## O=C(CCc1cc(O)cc(O)c1)NCCc1cc(OCc2ccccc2)cc(OCc2ccccc2)c1
786-0
  GI50: 18.7 µM (inactive)
A498
  GI50: 21.2 µM (inactive)
A549
  GI50: 5.28 µM (inactive)
ACHN
  GI50: 3.4 µM (inactive)
BT-549
  GI50: 16.4 µM (inactive)
CAKI-1
  GI50: 19.2 µM (inactive)
CCRF-CEM
  GI50: 7.8 µM (inactive)
COLO 205
  GI50: 20.5 µM (inactive)
DU-145
  GI50: 15.8 µM (inactive)
EKVX
  GI50: 7.24 µM (inactive)
HCC 2998
  GI50: 19.6 µM (inactive)
HCT-116
  GI50: 12.9 µM (inactive)
HCT-15
  GI50: 14.7 µM
HL-60
  GI50: 2.7 µM (inactive)
HOP-62
  GI50: 16.4 µM (inactive)
HOP-92
  GI50: 17.1 µM (inactive)
HT-29
  GI50: 14.8 µM (inactive)
Hs-578T
  GI50: 16.8 µM (inactive)
IGROV-1
  GI50: 15.5 µM (inactive)
K562
  GI50: 4.8 µM (inactive)
KM12
  GI50: 12.6 µM (inactive)
LOX IMVI
  GI50: 11.5 µM (inactive)
M14
  GI50: 13.2 µM (inactive)
MCF7
  GI50: 4.92 µM (inactive)
MDA-MB-231
  GI50: 10.3 µM (inactive)
MDA-MB-435
  GI50: 11.1 µM (inactive)
MDA-N
  GI50: 13.7 µM (inactive)
MOLT-4
  GI50: 5.35 µM (inactive)
NCI-H226
  GI50: 15.9 µM (inactive)
NCI-H23
  GI50: 10.4 µM (inactive)
NCI-H460
  GI50: 4.68 µM (inactive)
NCI-H522
  GI50: 11.9 µM (inactive)
NCI/ADR-RES
  GI50: 17.8 µM (inactive)
OVCAR-3
  GI50: 14.7 µM (inactive)
OVCAR-5
  GI50: 20.2 µM (inactive)
OVCAR-8
  GI50: 13.7 µM (inactive)
PC-3
  GI50: 8.89 µM (inactive)
RPMI-8226
  GI50: 7.45 µM (inactive)
RXF 393
  GI50: 8.55 µM (inactive)
SF-268
  GI50: 15 µM (inactive)
SF-295
  GI50: 10.4 µM (inactive)
SF-539
  GI50: 16.2 µM (inactive)
SK-MEL-28
  GI50: 17.5 µM (inactive)
SK-MEL-2
  GI50: 10.2 µM (inactive)
SK-MEL-5
  GI50: 10.6 µM (inactive)
SK-OV-3
  GI50: 16.8 µM (inactive)
SN12C
  GI50: 14.9 µM (inactive)
SNB-19
  GI50: 2.41 µM (inactive)
SNB-75
  GI50: 11 µM (inactive)
SR
  GI50: 4.83 µM (inactive)
SW-620
  GI50: 15.8 µM (inactive)
T47D
  GI50: 11.2 µM (inactive)
TK-10
  GI50: 21.4 µM (inactive)
U-251
  GI50: 13 µM (inactive)
UACC-257
  GI50: 23.6 µM (inactive)
UACC-62
  GI50: 16.9 µM (inactive)
UO-31
  GI50: 3.55 µM (inactive)

## Oc1ccc(Cl)cc1-c1cc(-c2ccccc2)nc(NCN2CCCCC2)n1
786-0
  GI50: > 100 µM (inactive)
A498
  GI50: > 100 µM (inactive)
A549
  GI50: > 100 µM (inactive)
ACHN
  GI50: 24.2 µM (inactive)
BT-549
  GI50: > 100 µM (inactive)
CAKI-1
  GI50: 8.81 µM (inactive)
COLO 205
  GI50: > 100 µM (inactive)
DU-145
  GI50: > 100 µM (inactive)
EKVX
  GI50: > 100 µM (inactive)
HCC 2998
  GI50: > 100 µM (inactive)
HCT-116
  GI50: 6.68 µM (inactive)
HCT-15
  GI50: 5.02 µM
HL-60
  GI50: > 100 µM (inactive)
HOP-62
  GI50: > 100 µM (inactive)
HOP-92
  GI50: > 100 µM (inactive)
HT-29
  GI50: > 100 µM (inactive)
Hs-578T
  GI50: > 100 µM (inactive)
IGROV-1
  GI50: > 100 µM (inactive)
K562
  GI50: > 100 µM (inactive)
KM12
  GI50: 0.78 µM (active)
LOX IMVI
  GI50: > 100 µM (inactive)
M14
  GI50: > 100 µM (inactive)
MCF7
  GI50: 2.78 µM (inactive)
MDA-MB-231
  GI50: > 100 µM (inactive)
MDA-MB-435
  GI50: > 100 µM (inactive)
MDA-N
  GI50: > 100 µM (inactive)
MOLT-4
  GI50: > 100 µM (inactive)
Malme-3M
  GI50: > 100 µM (inactive)
NCI-H226
  GI50: 0.838 µM (active)
NCI-H23
  GI50: 72.1 µM (inactive)
NCI-H460
  GI50: > 100 µM (inactive)
NCI-H522
  GI50: > 100 µM (inactive)
NCI/ADR-RES
  GI50: > 100 µM (inactive)
OVCAR-3
  GI50: > 100 µM (inactive)
OVCAR-4
  GI50: > 100 µM (inactive)
OVCAR-5
  GI50: > 100 µM (inactive)
OVCAR-8
  GI50: > 100 µM (inactive)
PC-3
  GI50: > 100 µM (inactive)
RPMI-8226
  GI50: > 100 µM (inactive)
RXF 393
  GI50: > 100 µM (inactive)
SF-268
  GI50: 7.14 µM (inactive)
SF-539
  GI50: > 100 µM (inactive)
SK-MEL-28
  GI50: > 100 µM (inactive)
SK-MEL-2
  GI50: > 100 µM (inactive)
SK-MEL-5
  GI50: 15.8 µM (inactive)
SK-OV-3
  GI50: > 100 µM (inactive)
SN12C
  GI50: > 100 µM (inactive)
SNB-19
  GI50: > 100 µM (inactive)
SNB-75
  GI50: > 100 µM (inactive)
SR
  GI50: 4.19 µM (inactive)
SW-620
  GI50: > 100 µM (inactive)
T47D
  GI50: > 100 µM (inactive)
TK-10
  GI50: > 100 µM (inactive)
U-251
  GI50: > 100 µM (inactive)
UACC-257
  GI50: > 100 µM (inactive)
UACC-62
  GI50: > 100 µM (inactive)
UO-31
  GI50: > 100 µM (inactive)
